Test results taken from PubChem BioAssay (NCI).
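Cultured in 96-well plates, cells were exposed to test compound for 48 hours across five concentrations. The concentration for 50% growth inhibition is given as GI50. TGI is the concentration that stops growth completely.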

What was measured:
Test in all cases: growth of human tumour cells (NCI), 48 h
M14 melanoma = system: M14 melanoma
SW-620 colon = system: SW-620 colon
SNB-75 CNS = system: SNB-75 CNS
HCT-116 colon = system: HCT-116 colon
NCI-H522 lung = system: NCI-H522 lung
CAKI-1 renal = system: CAKI-1 renal
SF-295 CNS = system: SF-295 CNS
CCRF-CEM leukemia = system: CCRF-CEM leukemia
OVCAR-5 ovarian = system: OVCAR-5 ovarian
PC-3 prostate = system: PC-3 prostate

Compound | TGI (M14 melanoma) [µM] | TGI (SW-620 colon) [µM] | TGI (SNB-75 CNS) [µM] | TGI (HCT-116 colon) [µM] | TGI (NCI-H522 lung) [µM] | TGI (CAKI-1 renal) [µM] | TGI (SF-295 CNS) [µM] | TGI (CCRF-CEM leukemia) [µM] | TGI (OVCAR-5 ovarian) [µM] | GI50 (M14 melanoma) [µM] | GI50 (PC-3 prostate) [µM] | TGI (PC-3 prostate) [µM] | GI50 (NCI-H522 lung) [µM] | GI50 (OVCAR-5 ovarian) [µM] | GI50 (CAKI-1 renal) [µM] | GI50 (SF-295 CNS) [µM] | GI50 (SW-620 colon) [µM] | GI50 (HCT-116 colon) [µM] | GI50 (CCRF-CEM leukemia) [µM] | GI50 (SNB-75 CNS) [µM]
c1cnn(CN(Cn2cccn2)Cn2cccn2)c1 | > 100 | > 100 | > 100 | > 100 | > 100 | > 100 | > 100 | > 100 | – | – | – | – | – | – | – | – | – | – | – | –
O=C(CCc1nc(=S)[nH][nH]1)Nc1ccccc1Cl | > 100 | 35.6 | > 100 | > 100 | > 100 | > 100 | > 100 | > 100 | > 100 | – | – | – | – | – | – | – | – | – | – | –
COC(=O)C(Cc1nc2ccccc2[nH]c1=O)C(NO)C(=O)Nc1c(Cl)cc([N+](=O)[O-])cc1Cl (stereo not drawn) | > 100 | – | – | 47.9 | 31.3 | > 100 | > 100 | 65.3 | – | – | – | – | – | – | – | – | – | – | – | –
O=C(O)CNS(=O)(=O)c1ccc(NC(=O)c2ccc([N+](=O)[O-])cc2)cc1 | > 100 | > 100 | > 100 | – | > 100 | > 100 | > 100 | > 100 | > 100 | – | – | – | – | – | – | – | – | – | – | –
CCCN(CCC)C(=O)c1c([N+](=O)[O-])cc(C(F)(F)F)cc1[N+](=O)[O-] | > 100 | 84.3 | > 100 | 87.4 | 60.5 | > 100 | > 100 | > 100 | > 100 | – | – | – | – | – | – | – | – | – | – | –
S=c1ssc(N2CCOCC2)c1Cl | > 100 | – | – | – | 55.4 | > 100 | > 100 | – | > 100 | > 100 | 40.2 | > 100 | 20.4 | > 100 | > 100 | 25.8 | – | – | – | –
CN(C)CCC1(C2=CCCC2)CC/C(=C\c2ccc(Cl)cc2)C1=O (stereo not drawn) | 3.84 | 24.2 | 20.4 | 22.3 | 18.8 | 19.2 | 20.8 | > 22.7 | 25.7 | – | – | – | – | – | – | – | – | – | – | –
O=C(c1cccc2ccccc12)N1CCC(C2CCN(C(=O)c3cccc4ccccc34)CC2)CC1 | > 100 | > 100 | 65.7 | > 100 | > 100 | > 100 | > 100 | > 100 | > 100 | – | – | – | – | – | – | – | – | – | – | –
CCOC(=O)C1SC(=Nc2ccc(C)c(C)c2)N=C1C (stereo not drawn) | > 100 | > 100 | > 100 | – | > 100 | > 100 | > 100 | > 100 | > 100 | – | – | – | – | – | – | – | – | – | – | –
O=S(=O)(c1ccc(NC(=S)NC23CC4CC(CC(C4)C2)C3)cc1)N1CCCCC1 | 22.7 | > 100 | – | > 100 | 6.62 | > 100 | – | > 100 | > 100 | 3.36 | 2.55 | 8.94 | 2.7 | 3.53 | 3.06 | – | 3.82 | 3.34 | 3.13 | –
CNC(=S)/N=C(\N)N(C)C | > 100 | > 100 | > 100 | > 100 | > 100 | > 100 | > 100 | – | – | – | – | – | – | – | – | – | – | – | – | –
COC(=O)[C@@]12C(=O)C=CC(=O)C1C1C(=CC2C)OC2OC3(CCCCC3)OC21 (stereo partly drawn) | 33.6 | 37.4 | 33.2 | 29.8 | – | 33.4 | 32.9 | 7.49 | 27.8 | – | – | – | – | – | – | – | – | – | – | –
COc1cc2[nH]c3c(c2cc1OC)CCN[C@]31CC[C@]2(CC3c4c(cc(OC)c(O)c42)CCN3C)C[C@H]1OC (stereo partly drawn) | 29.5 | 53.3 | 45.5 | 31.6 | – | > 100 | 36.4 | 26.7 | > 100 | – | – | – | – | – | – | – | – | – | – | –
O=C1c2ccccc2C(=O)C1(O)c1c[nH]c2ccccc12 | > 100 | > 100 | > 100 | > 100 | > 100 | > 100 | > 100 | > 100 | > 100 | – | – | – | – | – | – | – | – | – | – | –
CCCCNC1CCCCC[C@H]1O (stereo partly drawn) | > 100 | > 100 | > 100 | > 100 | > 100 | > 100 | > 100 | > 100 | > 100 | – | – | – | – | – | – | – | – | – | – | –
O=C1C2C3C=C4c5ccccc5N(c5ccccc5)C4(C2C(=O)N1c1ccc([N+](=O)[O-])cc1)[C@H]1C(=O)N(c2ccc([N+](=O)[O-])cc2)C(=O)[C@@H]31 (stereo partly drawn) | > 100 | > 100 | > 100 | > 100 | > 100 | > 100 | > 100 | > 100 | > 100 | – | – | – | – | – | – | – | – | – | – | –
Cc1nnc(NS(=O)(=O)c2ccc(N=Nc3cc(N=Nc4ccc(S(=O)(=O)Nc5nnc(C)s5)cc4)c4c(NC(=O)C(Cl)Cl)cccc4c3OC(=O)C(Cl)Cl)cc2)s1 (tested in a mixture with another compound) | 73.4 | > 100 | 82 | 41.7 | 64.7 | > 100 | > 100 | > 100 | 55.5 | – | – | – | – | – | – | – | – | – | – | –
C=C(C)CCN[Si](c1ccccc1)(c1ccccc1)C(C)(C)C | 34.4 | > 100 | 82.2 | 27.7 | 44.3 | – | 36.4 | 66.4 | – | – | – | – | – | – | – | – | – | – | – | –
Cc1[nH]c(=O)nc2[nH][nH]c(=O)c12 | > 100 | > 100 | – | > 100 | > 100 | > 100 | > 100 | > 100 | > 100 | – | – | – | – | – | – | – | – | – | – | –
CCOC(=O)CCC(=O)C1c2cccc(O)c2C(=O)c2c(O)cc(C)cc21 (stereo not drawn) | 2.71 | 2.9 | 1.76 | 1.88 | 1.33 | 3.25 | 0.878 | 2.75 | 1.67 | – | – | – | – | – | – | – | – | – | – | –
COc1ccc(C(=O)c2cc(C)c(OC)c(C)c2)cc1OC(=O)CCl | 22.8 | > 100 | > 100 | > 100 | < 0.01 | – | > 86 | > 100 | > 100 | < 0.01 | < 0.021 | > 100 | < 0.01 | 1.71 | – | < 0.0229 | < 0.01 | < 0.0111 | < 0.01 | < 0.01
CCOC(=O)C(=O)Nc1ccccc1CC | > 100 | > 100 | – | > 100 | > 100 | > 100 | > 100 | > 100 | > 100 | – | – | – | – | – | – | – | – | – | – | –
